Test results published in patent publication US20260250318A1, “COMPOSITIONS AND METHODS FOR CROSSING THE BLOOD BRAIN BARRIER” (VOYAGER THERAPEUTICS, INC., priority 2022, published 2026).

These sequences were tested on brain (assay: Matured TTM-001 and TTM-002 variants, NGS enrichment in mouse brain). Conditions: NGS fold-enrichment, brain of mice, relative to AAV9 control.
Assay type: in vivo, mice

| Sequence | Fold Enrichment relative to AAV9, Brain (Mouse) [fold] |
| --- | --- |
| KTINGSGSPHGWVQNQQT | 290.720 |
| KTIRDAGSPHSKAQNQQT | 113.179 |
| KTEKSSGSPHSKAQNQQT | 100.177 |
| KTVKGSGSPHSKAQDQQT | 58.114 |
| KTINGSGSPHSKAQHPST | 101.103 |
| KTIQDGGSPHSKAQNQQT | 87.522 |
| KNADGSGSPHSKAQNQQT | 104.503 |

Same assay, conditions: NGS fold-enrichment, mouse brain, relative to AAV9 control

| Sequence | Fold Enrichment relative to AAV9, Brain (Mouse) [fold] |
| --- | --- |
| KTINGSGSPHGWVQNQQT | 290.720 |
| KTEKSSGSPHSKAQNQQT | 100.177 |
| KAINGYDSPHKSGQKQQT | 13.057 |
| KTDKGSGSPHSKAQNQQT | 47.888 |

Same assay, conditions: mouse brain; relative to AAV9 control

| Sequence | Fold Enrichment relative to AAV9, Brain (Mouse) [fold] |
| --- | --- |
| KTEPMSGSPHSKAQNQQT | 126.322 |
| KTVNGGGSPHSKSQNQQT | 170.548 |
| KTINGGGSPHSKSQNRQT | 149.370 |
| KTINGSGSPHSKNRDQQT | 100.300 |
| KTVNGSGSPHSKSQNQQT | 58.000 |
| KNINGSGSPHSKAQNHQT | 74.979 |
| KSDKGSGSPHSKAQNQQT | 146.566 |
| KTINGSGSPHSKARGLQT | 169.881 |

What follows are sequences tested on brains, heart, liver, muscle, and DRG of the NHPs (assay: Maturation of TTM-001 and TTM-002 capsids, NGS enrichment in NHP tissues). Conditions: NGS fold-enrichment of RNA, NHP brain, relative to AAV9 control.
Assay type: in vivo
Summary of the method: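 Variants carry mutations within and flanking the loop IV peptide insert: positions 450–466 were triplet-randomized, while positions 449–466 received low-frequency point mutations. The combined pool went into two NHPs, and each peptide was scored by NGS enrichment ratio against AAV9.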

| Sequence | Fold Enrichment relative to AAV9, Brain (NHP) [fold] |
| --- | --- |
| KTINGSGSPHGWVQNQQT | 97.122 |
| KTEKSSGSPHSKAQNQQT | 107.470 |
| KAINGYDSPHKSGQKQQT | 83.803 |
| KTDKGSGSPHSKAQNQQT | 94.572 |

Same assay, conditions: NGS fold-enrichment of matured AAV capsid variants; NHP brain, RNA; relative to AAV9 control

| Sequence | Fold Enrichment relative to AAV9, Brain (NHP) [fold] |
| --- | --- |
| KTEPMSGSPHSKAQNQQT | 50.960 |
| KTVNGGGSPHSKSQNQQT | 56.114 |
| KTINGGGSPHSKSQNRQT | 51.017 |
| KTINGSGSPHSKNRDQQT | 51.830 |
| KTVNGSGSPHSKSQNQQT | 52.395 |
| KNINGSGSPHSKAQNHQT | 54.248 |
| KSDKGSGSPHSKAQNQQT | 58.248 |
| KTINGSGSPHSKARGLQT | 52.275 |

Same assay, conditions: NGS fold-enrichment, DRG of NHPs, relative to AAV9 control

| Sequence | Fold Enrichment relative to AAV9, DRG (NHP) [fold] |
| --- | --- |
| KTINGSGSPHGWVQNQQT | 0.000 |
| KTIRDAGSPHSKAQNQQT | 0.000 |
| KTEKSSGSPHSKAQNQQT | 0.000 |
| KTVKGSGSPHSKAQDQQT | 0.000 |
| KTINGSGSPHSKAQHPST | 0.000 |
| KTIQDGGSPHSKAQNQQT | 0.000 |
| KNADGSGSPHSKAQNQQT | 0.000 |

Same assay, conditions: NGS fold-enrichment, NHP DRG, relative to AAV9 control

| Sequence | Fold Enrichment relative to AAV9, DRG (NHP) [fold] |
| --- | --- |
| KTINGSGSPHGWVQNQQT | 0.000 |
| KTEKSSGSPHSKAQNQQT | 0.000 |
| KAINGYDSPHKSGQKQQT | 0.041 |
| KTDKGSGSPHSKAQNQQT | 0.000 |

Same assay, conditions: NGS fold-enrichment, NHP heart, relative to AAV9 control

| Sequence | Fold Enrichment relative to AAV9, Heart (NHP) [fold] |
| --- | --- |
| KTINGSGSPHGWVQNQQT | 0.000 |
| KTEKSSGSPHSKAQNQQT | 0.016 |
| KAINGYDSPHKSGQKQQT | 9.491 |
| KTDKGSGSPHSKAQNQQT | 0.037 |

Same assay, conditions: NGS fold-enrichment, NHP liver DNA, relative to AAV9 control

| Sequence | Fold Enrichment relative to AAV9, Liver DNA (NHP) [fold] |
| --- | --- |
| KTINGSGSPHGWVQNQQT | 1.975 |
| KTEKSSGSPHSKAQNQQT | 0.179 |
| KAINGYDSPHKSGQKQQT | 0.150 |
| KTDKGSGSPHSKAQNQQT | 0.367 |

Same assay, conditions: NGS fold-enrichment, NHP liver RNA, relative to AAV9 control

| Sequence | Fold Enrichment relative to AAV9, Liver RNA (NHP) [fold] |
| --- | --- |
| KTINGSGSPHGWVQNQQT | 1.240 |
| KTEKSSGSPHSKAQNQQT | 0.977 |
| KAINGYDSPHKSGQKQQT | 0.031 |
| KTDKGSGSPHSKAQNQQT | 0.951 |

Same assay, conditions: NGS fold-enrichment, NHP muscle, relative to AAV9 control

| Sequence | Fold Enrichment relative to AAV9, Muscle (NHP) [fold] |
| --- | --- |
| KTINGSGSPHGWVQNQQT | 0.000 |
| KTEKSSGSPHSKAQNQQT | 0.014 |
| KAINGYDSPHKSGQKQQT | 0.000 |
| KTDKGSGSPHSKAQNQQT | 0.000 |

Same assay, conditions: NGS fold-enrichment, RNA, brain of NHPs, relative to AAV9 control

| Sequence | Fold Enrichment relative to AAV9, Brain (NHP) [fold] |
| --- | --- |
| KTINGSGSPHGWVQNQQT | 97.122 |
| KTIRDAGSPHSKAQNQQT | 60.346 |
| KTEKSSGSPHSKAQNQQT | 107.470 |
| KTVKGSGSPHSKAQDQQT | 61.175 |
| KTINGSGSPHSKAQHPST | 62.255 |
| KTIQDGGSPHSKAQNQQT | 59.865 |
| KNADGSGSPHSKAQNQQT | 60.944 |

Same assay, conditions: NGS fold-enrichment, heart of NHPs, relative to AAV9 control

| Sequence | Fold Enrichment relative to AAV9, Heart (NHP) [fold] |
| --- | --- |
| KTINGSGSPHGWVQNQQT | 0.000 |
| KTIRDAGSPHSKAQNQQT | 0.000 |
| KTEKSSGSPHSKAQNQQT | 0.016 |
| KTVKGSGSPHSKAQDQQT | 0.041 |
| KTINGSGSPHSKAQHPST | 0.044 |
| KTIQDGGSPHSKAQNQQT | 0.000 |
| KNADGSGSPHSKAQNQQT | 0.000 |

Same assay, conditions: NGS fold-enrichment, liver DNA of NHPs, relative to AAV9 control

| Sequence | Fold Enrichment relative to AAV9, Liver DNA (NHP) [fold] |
| --- | --- |
| KTINGSGSPHGWVQNQQT | 1.975 |
| KTIRDAGSPHSKAQNQQT | 0.251 |
| KTEKSSGSPHSKAQNQQT | 0.179 |
| KTVKGSGSPHSKAQDQQT | 0.090 |
| KTINGSGSPHSKAQHPST | 0.301 |
| KTIQDGGSPHSKAQNQQT | 0.789 |
| KNADGSGSPHSKAQNQQT | 0.085 |

Same assay, conditions: NGS fold-enrichment, liver RNA of NHPs, relative to AAV9 control

| Sequence | Fold Enrichment relative to AAV9, Liver RNA (NHP) [fold] |
| --- | --- |
| KTINGSGSPHGWVQNQQT | 1.240 |
| KTIRDAGSPHSKAQNQQT | 0.141 |
| KTEKSSGSPHSKAQNQQT | 0.977 |
| KTVKGSGSPHSKAQDQQT | 0.432 |
| KTINGSGSPHSKAQHPST | 1.345 |
| KTIQDGGSPHSKAQNQQT | 1.435 |
| KNADGSGSPHSKAQNQQT | 1.239 |

Same assay, conditions: NGS fold-enrichment, muscle of NHPs, relative to AAV9 control

| Sequence | Fold Enrichment relative to AAV9, Muscle (NHP) [fold] |
| --- | --- |
| KTINGSGSPHGWVQNQQT | 0.000 |
| KTIRDAGSPHSKAQNQQT | 0.000 |
| KTEKSSGSPHSKAQNQQT | 0.014 |
| KTVKGSGSPHSKAQDQQT | 0.000 |
| KTINGSGSPHSKAQHPST | 0.000 |
| KTIQDGGSPHSKAQNQQT | 0.116 |
| KNADGSGSPHSKAQNQQT | 0.000 |

Same assay, conditions: NHP DRG; relative to AAV9 control

| Sequence | Fold Enrichment relative to AAV9, DRG (NHP) [fold] |
| --- | --- |
| KTEPMSGSPHSKAQNQQT | 0.203 |
| KTVNGGGSPHSKSQNQQT | 0.116 |
| KTINGGGSPHSKSQNRQT | 0.000 |
| KTINGSGSPHSKNRDQQT | 0.000 |
| KTVNGSGSPHSKSQNQQT | 0.033 |
| KNINGSGSPHSKAQNHQT | 0.000 |
| KSDKGSGSPHSKAQNQQT | 0.000 |
| KTINGSGSPHSKARGLQT | 0.000 |

Same assay, conditions: NHP heart; relative to AAV9 control

| Sequence | Fold Enrichment relative to AAV9, Heart (NHP) [fold] |
| --- | --- |
| KTEPMSGSPHSKAQNQQT | 0.000 |
| KTVNGGGSPHSKSQNQQT | 0.000 |
| KTINGGGSPHSKSQNRQT | 0.000 |
| KTINGSGSPHSKNRDQQT | 0.008 |
| KTVNGSGSPHSKSQNQQT | 0.077 |
| KNINGSGSPHSKAQNHQT | 0.034 |
| KSDKGSGSPHSKAQNQQT | 0.000 |
| KTINGSGSPHSKARGLQT | 0.000 |

Same assay, conditions: NHP liver, DNA; relative to AAV9 control

| Sequence | Fold Enrichment relative to AAV9, Liver DNA (NHP) [fold] |
| --- | --- |
| KTEPMSGSPHSKAQNQQT | 0.415 |
| KTVNGGGSPHSKSQNQQT | 0.040 |
| KTINGGGSPHSKSQNRQT | 0.421 |
| KTINGSGSPHSKNRDQQT | 0.138 |
| KTVNGSGSPHSKSQNQQT | 0.175 |
| KNINGSGSPHSKAQNHQT | 0.075 |
| KSDKGSGSPHSKAQNQQT | 0.166 |
| KTINGSGSPHSKARGLQT | 1.425 |

Same assay, conditions: NHP liver, RNA; relative to AAV9 control

| Sequence | Fold Enrichment relative to AAV9, Liver RNA (NHP) [fold] |
| --- | --- |
| KTEPMSGSPHSKAQNQQT | 1.816 |
| KTVNGGGSPHSKSQNQQT | 0.000 |
| KTINGGGSPHSKSQNRQT | 0.000 |
| KTINGSGSPHSKNRDQQT | 0.480 |
| KTVNGSGSPHSKSQNQQT | 0.105 |
| KNINGSGSPHSKAQNHQT | 0.340 |
| KSDKGSGSPHSKAQNQQT | 0.076 |
| KTINGSGSPHSKARGLQT | 1.235 |

Same assay, conditions: NHP muscle; relative to AAV9 control

| Sequence | Fold Enrichment relative to AAV9, Muscle (NHP) [fold] |
| --- | --- |
| KTEPMSGSPHSKAQNQQT | 0.000 |
| KTVNGGGSPHSKSQNQQT | 0.000 |
| KTINGGGSPHSKSQNRQT | 0.000 |
| KTINGSGSPHSKNRDQQT | 0.000 |
| KTVNGSGSPHSKSQNQQT | 0.013 |
| KNINGSGSPHSKAQNHQT | 0.000 |
| KSDKGSGSPHSKAQNQQT | 0.000 |
| KTINGSGSPHSKARGLQT | 0.036 |
